Results taken from patent US9006440B2, “Furopyridine derivatives” (Merck Patent GmbH, priority 2010, dated 2015).

How the values were obtained:
[1] = tested on: BLNK phosphorylation in Ramos cells; test: BCR crosslinking-induced BLNK phosphorylation (BLNK cell assay); assay type: cell-based; conditions: Homo sapiens
Procedure: 1. BCR Crosslinking-Induced BLNK Phosphorylation
Ramos cells incubated overnight in IMDM medium containing 5% FCS were resuspended in IMDM medium without serum (3.3×10^6 cells/ml). 90 μl of cell suspension (300′000 cells) were incubated with 10 μl of SYK inhibitors (in 3% DMSO) for 20 minutes at 37° C., in 96 well plates. After preincubation with inhibitors, cells were activated with 10 μg/ml of goat antihuman anti-IgM for 10 minutes at 37° C. After stimulation, cells were fixed by addition of 80 μl of 4% paraformaldehyde followed by a 10 minutes incubation at RT and […] in 0.1% Triton X-100 in PBS. BLNK phosphorylation was detected by flow cytometry after staining of the cells with anti-BLNK-pY84-PE antibodies from BD pharmingen, for 45 minutes at RT.
BLNK phosphorylation in CD19^+ peripheral blood mononuclear cells (PBMC) isolated from buffy coats of healthy volunteers was performed using the same protocol and staining the cells with a mixture of anti-BLNK-pY84-PE, anti CD-19 PerCp and Anti-IgM APC antibodies from BD Pharmingen.

Syk = target: T1, Syk (Homo sapiens, UniProt P43405); test: Syk enzyme assay (SYK flash plate assay / Caliper mobility shift); assay type: biochemical
T1 construct: purchased BPS Bioscience, CA, USA
Summary of the method: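 Flashplate format: 2.5 nM SYK, 400 nM biotinylated peptide, 10 μM ATP with 33P-ATP, pH 7.5, 1 h at 30 °C; radioactivity read, staurosporine background. Caliper format: 90 min at 25 °C, mobility-shift read of substrate-to-product conversion; IC50 from dose-response curve.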

KDR = target: T2, KDR (Homo sapiens, UniProt P35968); test: KDR enzymatic assay (Caliper LifeSciences technology); assay type: biochemical
T2 construct: purchased BPS Bioscience, CA, USA
T2 sequence (P35968 20-1356): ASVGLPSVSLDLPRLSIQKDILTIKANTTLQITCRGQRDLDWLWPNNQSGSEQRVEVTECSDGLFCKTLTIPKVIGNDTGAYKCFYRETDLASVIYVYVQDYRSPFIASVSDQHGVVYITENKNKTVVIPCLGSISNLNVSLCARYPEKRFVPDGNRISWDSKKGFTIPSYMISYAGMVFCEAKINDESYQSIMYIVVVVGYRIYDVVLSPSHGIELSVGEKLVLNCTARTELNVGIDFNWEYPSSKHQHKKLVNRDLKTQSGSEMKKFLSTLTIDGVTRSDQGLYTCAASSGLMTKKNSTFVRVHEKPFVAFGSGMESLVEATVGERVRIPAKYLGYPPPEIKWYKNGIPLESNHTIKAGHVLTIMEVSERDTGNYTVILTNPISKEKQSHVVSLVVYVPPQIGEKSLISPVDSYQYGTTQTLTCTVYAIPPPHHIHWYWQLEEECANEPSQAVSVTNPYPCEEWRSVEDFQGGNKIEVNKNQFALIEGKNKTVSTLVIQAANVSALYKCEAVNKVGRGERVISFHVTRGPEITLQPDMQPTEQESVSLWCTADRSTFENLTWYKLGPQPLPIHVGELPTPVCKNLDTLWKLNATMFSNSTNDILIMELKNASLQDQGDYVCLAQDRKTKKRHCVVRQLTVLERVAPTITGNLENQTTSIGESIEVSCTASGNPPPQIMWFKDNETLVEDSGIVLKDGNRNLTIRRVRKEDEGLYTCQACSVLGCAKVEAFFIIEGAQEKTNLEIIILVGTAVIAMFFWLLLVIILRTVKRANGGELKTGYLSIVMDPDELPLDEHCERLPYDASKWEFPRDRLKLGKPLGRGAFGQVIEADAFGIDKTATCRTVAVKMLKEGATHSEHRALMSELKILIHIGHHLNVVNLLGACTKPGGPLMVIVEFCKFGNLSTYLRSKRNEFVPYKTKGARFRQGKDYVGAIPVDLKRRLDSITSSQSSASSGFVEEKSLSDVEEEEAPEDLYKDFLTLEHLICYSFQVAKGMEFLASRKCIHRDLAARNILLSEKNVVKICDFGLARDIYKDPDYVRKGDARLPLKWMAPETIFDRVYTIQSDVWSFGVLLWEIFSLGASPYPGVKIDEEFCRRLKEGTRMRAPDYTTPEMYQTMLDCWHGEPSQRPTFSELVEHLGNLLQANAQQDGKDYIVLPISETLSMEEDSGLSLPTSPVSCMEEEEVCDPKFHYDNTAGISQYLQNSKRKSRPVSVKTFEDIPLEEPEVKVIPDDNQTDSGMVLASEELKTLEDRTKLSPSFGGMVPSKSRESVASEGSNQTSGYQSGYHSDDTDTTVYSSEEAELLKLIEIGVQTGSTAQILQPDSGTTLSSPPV
Summary of the method: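 Off-chip mobility-shift assay measuring conversion of a fluorescently labelled peptide substrate, in 100 mM HEPES pH 7.5, 1 mM DTT, 1 mM MgCl2 and 0.015% Brij-35. Reactions ran 90 min at 25 C and were stopped with EDTA. IC50s were derived from percent-conversion dose-response curves.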

Zap70 = target: T3, Zap70 (Homo sapiens, UniProt P43403); test: ZAP-70 enzymatic assay (Caliper LifeSciences technology); assay type: biochemical
T3 construct: purchased BPS Bioscience, CA, USA
T3 sequence (P43403 1-619): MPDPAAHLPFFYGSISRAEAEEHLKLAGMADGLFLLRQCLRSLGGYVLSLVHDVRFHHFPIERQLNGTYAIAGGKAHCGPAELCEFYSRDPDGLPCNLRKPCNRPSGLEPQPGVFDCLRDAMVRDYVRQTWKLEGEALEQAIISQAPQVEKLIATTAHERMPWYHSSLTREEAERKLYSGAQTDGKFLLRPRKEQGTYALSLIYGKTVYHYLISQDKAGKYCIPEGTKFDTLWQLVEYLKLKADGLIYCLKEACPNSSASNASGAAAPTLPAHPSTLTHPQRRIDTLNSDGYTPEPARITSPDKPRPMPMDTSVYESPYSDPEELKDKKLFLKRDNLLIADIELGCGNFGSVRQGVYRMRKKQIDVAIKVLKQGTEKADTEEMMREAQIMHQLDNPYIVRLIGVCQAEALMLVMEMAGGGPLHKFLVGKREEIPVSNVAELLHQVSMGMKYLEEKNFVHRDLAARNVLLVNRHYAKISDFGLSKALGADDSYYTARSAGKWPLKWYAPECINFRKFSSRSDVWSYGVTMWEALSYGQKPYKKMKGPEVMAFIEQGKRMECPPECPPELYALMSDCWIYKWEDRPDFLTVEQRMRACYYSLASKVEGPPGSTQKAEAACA
Procedure: (§1) The assays described here are performed on the Caliper Life Sciences LC3000 system This technology provides data on enzyme activity via measurement of the relative amounts of phosphorylated or unphosphorylated fluorescently labelled substrate peptide at the end of an enzymatic reaction. These different states of peptide are resolved by applying a potential difference across the sample. The presence of the charged phosphate group on the product (as opposed to the substrate) causes a different peptide mobility between the two peptides. This is visualized by excitation of the fluorescent label on the substrate and product peptides and represented as peaks within the analysis software.
(§2) In order to measure inhibitor activity of kinase inhibitors on this technology, a TTP Mosquito liquid handling instrument is used to place 0.25 ul of the appropriate concentration of inhibitor in 100% DMSO (for a dose response curve calculation) into each well of a 384-well plate. To this reaction components are added to a final volume of 25 ul. The table below indicates the sequences and concentrations for the assays described in this report. Standard components are 1 mM DTT (Sigma, D0632), 1 mM MgCl2 (Sigma, M1028), 100 mM HEPES pH 7.5 (Calbiochem, 391338), 0.015% Brij-35 (Sigma, B4184).
(§3) The reaction is incubated for 90 min at 25 C, and then stopped by the addition of 70 ul of Stop buffer (100 mM HEPES pH 7.5, 0.015% Brij-35, 10 mM EDTA (Sigma, E7889)).
(§4) The plate is read on a Caliper LC 3000 in an Off-Chip mobility shift assay format, on a 12-sipper chip. Unphosphorylated substrate and phosphorylated product peptide resolve as separate peaks allowing direct measurement of percentage of conversion of substrate to product. The percent conversion can be plotted against concentration of inhibitor to produce a sigmoidal dose response curve, from which an IC50 can be calculated using GeneData Condoseo or a similar product.

SRC = target: T4, SRC (Homo sapiens, UniProt P12931); test: Src enzymatic assay (Caliper LifeSciences technology); assay type: biochemical
T4 construct: purchased Carna Bioscience, Kobe, Japan
T4 sequence (P12931 whole entry): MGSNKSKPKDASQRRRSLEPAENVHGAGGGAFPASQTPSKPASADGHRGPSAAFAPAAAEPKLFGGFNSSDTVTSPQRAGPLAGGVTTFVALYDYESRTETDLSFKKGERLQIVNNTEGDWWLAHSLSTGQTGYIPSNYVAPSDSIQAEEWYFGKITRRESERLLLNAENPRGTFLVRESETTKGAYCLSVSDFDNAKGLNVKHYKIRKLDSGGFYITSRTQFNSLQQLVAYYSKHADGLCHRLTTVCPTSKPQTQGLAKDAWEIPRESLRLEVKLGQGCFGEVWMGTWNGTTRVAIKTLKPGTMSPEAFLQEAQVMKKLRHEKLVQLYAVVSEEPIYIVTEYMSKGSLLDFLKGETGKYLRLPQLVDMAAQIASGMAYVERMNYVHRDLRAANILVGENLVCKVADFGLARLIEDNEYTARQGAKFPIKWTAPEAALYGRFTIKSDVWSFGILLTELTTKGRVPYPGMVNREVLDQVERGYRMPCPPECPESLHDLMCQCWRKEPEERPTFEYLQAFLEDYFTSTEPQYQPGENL
Procedure: as §1, §2, §3, §4

BTK = target: T5, BTK (Homo sapiens, UniProt Q06187); test: BTK enzymatic assay (Caliper LifeSciences technology); assay type: biochemical
T5 construct: purchased Carna Bioscience, Kobe, Japan
T5 sequence (Q06187 whole entry): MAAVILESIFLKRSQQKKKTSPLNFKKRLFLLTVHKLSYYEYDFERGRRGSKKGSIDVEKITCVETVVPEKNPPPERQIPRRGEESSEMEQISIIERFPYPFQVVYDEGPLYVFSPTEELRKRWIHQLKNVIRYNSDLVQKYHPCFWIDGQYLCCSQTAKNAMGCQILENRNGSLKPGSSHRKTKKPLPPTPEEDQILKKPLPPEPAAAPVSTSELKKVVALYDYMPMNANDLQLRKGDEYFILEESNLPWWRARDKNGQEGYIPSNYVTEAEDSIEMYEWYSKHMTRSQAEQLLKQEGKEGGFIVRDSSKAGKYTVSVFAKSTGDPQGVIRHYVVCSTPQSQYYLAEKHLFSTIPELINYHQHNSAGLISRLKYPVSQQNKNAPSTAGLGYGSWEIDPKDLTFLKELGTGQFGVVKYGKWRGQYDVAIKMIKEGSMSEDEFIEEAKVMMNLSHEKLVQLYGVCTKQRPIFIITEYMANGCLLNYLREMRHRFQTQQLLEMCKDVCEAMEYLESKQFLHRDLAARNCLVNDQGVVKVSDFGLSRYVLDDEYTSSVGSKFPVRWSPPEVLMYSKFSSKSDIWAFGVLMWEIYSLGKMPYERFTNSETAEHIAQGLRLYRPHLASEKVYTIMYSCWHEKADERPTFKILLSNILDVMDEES
Procedure: as §1, §2, §3, §4

Row | Structure (SMILES) | IC50 [1] [µM] | IC50 (Syk) [µM] | IC50 (KDR) [µM] | IC50 (Zap70) [µM] | IC50 (SRC) [µM] | IC50 (BTK) [µM]
1 | COc1cc(-c2cc3nccc(-c4ccccc4)c3o2)cc(OC)c1OC [Compound A5, 7-Phenyl-2-(3,4,5-trimethoxy-phenyl)-furo[3,2-b]pyridine] | 3 to 50 | < 0.3 |  |  |  | 
2 | COc1cc(-c2cc3nccc(-c4cccc5[nH]ncc45)c3o2)cc(OC)c1OC [Compound A17, 7-(1H-Indazol-4-yl)-2-(3,4,5-trimethoxy-phenyl)-furo[3,2-b]pyridine] |  | < 0.3 | 0.3 to 3 | 3 to 50 |  | 
3 | COc1cc(-c2cc3nccc(-c4c[nH]c5ccccc45)c3o2)cc(OC)c1OC [Compound A25, 7-(1H-Indol-3-yl)-2-(3,4,5-trimethoxy-phenyl)-furo[3,2-b]pyridine] |  | 0.3 to 3 | 3 to 50 | 3 to 50 | 3 to 50 | 
4 | COc1cc(-c2cc3nccc(-c4ccc(C(=O)O)cc4)c3o2)cc(OC)c1OC [Compound A42, 4-[2-(3,4,5-Trimethoxy-phenyl)-furo[3,2-b]pyridin-7-yl]-benzoic acid] |  | < 0.3 | 3 to 50 | 0.3 to 3 | 3 to 50 | 
5 | COc1cc(-c2cc3nccc(-c4cccc(C(=O)NC5CCCCC5N)c4)c3o2)cc(OC)c1OC (stereo not shown) [Compound A45, N-(2-Amino-cyclohexyl)-3-[2-(3,4,5-trimethoxy-phenyl)-furo[3,2-b]pyridin-7-yl]-benzamide] |  | < 0.3 | 3 to 50 | 3 to 50 | 0.3 to 3 | 
6 | COc1cc(-c2cc3nccc(-c4cccc(N)c4)c3o2)cc(OC)c1OC [Compound A55, 3-[2-(3,4,5-Trimethoxy-phenyl)-furo[3,2-b]pyridin-7-yl]-phenylamine] |  | < 0.3 | 3 to 50 | 0.3 to 3 |  | 
7 | COc1cc(-c2cc3nccc(-c4ccc(N)cc4)c3o2)cc(OC)c1OC [Compound A56, 4-[2-(3,4,5-Trimethoxy-phenyl)-furo[3,2-b]pyridin-7-yl]-phenylamine] |  | < 0.3 | 0.3 to 3 | 0.3 to 3 |  | 
8 | COc1cc(-c2cc3nccc(Nc4ccc5cn[nH]c5c4)c3o2)cc(OC)c1OC [Compound B15] |  | 0.3 to 3 | 0.3 to 3 | 3 to 50 | 3 to 50 | 3 to 50
9 | COc1cc(-c2cc3nccc(Nc4ccc5[nH]ccc5c4C)c3o2)cc(OC)c1OC [Compound B22] | 3 to 50 | < 0.3 | < 0.3 |  | < 0.3 | 0.3 to 3
10 | COc1cc(-c2cc3nccc(Nc4ccc5[nH]ccc5c4)c3o2)cc(OC)c1OC [Compound B30] | 3 to 50 | < 0.3 | < 0.3 |  | < 0.3 | 0.3 to 3
11 | Cc1c(Nc2ccnc3cc(-c4ccc(CO)cc4)oc23)ccc2[nH]ccc12 [Compound B61, {4-[7-(4-Methyl-1H-indol-5-ylamino)-furo[3,2-b]pyridin-2-yl]-phenyl}-methanol] |  | 0.3 to 3 | < 0.3 | < 0.3 |  | 
12 | COc1cc(-c2cc3nccc(-c4ccc5[nH]ccc5c4)c3o2)cc(OC)c1OC [Compound B74, 7-(1H-Indol-5-yl)-2-(3,4,5-trimethoxyphenyl)furo[3,2-b]pyridine] | 0.3 to 3 | 0.3 to 3 |  |  |  | 3 to 50
13 | COc1cc(-c2cc3nccc(-c4ccc5c(c4)OCO5)c3o2)cc(OC)c1OC [Compound B76, 7-(Benzo[d][1,3]dioxol-5-yl)-2-(3,4,5-trimethoxyphenyl)furo[3,2-b]pyridine] |  | < 0.3 |  | 0.3 to 3 |  | 
14 | COc1cc(-c2cc3nccc(-c4c(OC)cccc4OC)c3o2)cc(OC)c1OC [Compound C2] |  | < 0.3 | 3 to 50 | 3 to 50 | 0.3 to 3 | 
15 | COc1cc(-c2cc3nccc(-c4cccc(C(=O)NCc5n[nH]c(=O)[nH]5)c4)c3o2)cc(OC)c1OC [Compound C12] |  | < 0.3 | 0.3 to 3 | 3 to 50 |  | 
16 | COc1cc(-c2cc3nccc(-c4cnn(C)c4)c3o2)ccc1O [Compound C26] |  | < 0.3 | 0.3 to 3 | 0.3 to 3 | 0.3 to 3 | 
17 | COc1cc(-c2cc3nccc(-c4ccc(CO)nc4)c3o2)cc(OC)c1OC [Compound C27] |  | < 0.3 | 3 to 50 | 3 to 50 |  | 
18 | Cn1cc(-c2ccnc3cc(-c4cccc(N)c4)oc23)cn1 [Compound C29] |  | < 0.3 | 0.3 to 3 | 3 to 50 | 3 to 50 | 
19 | COc1ccc(-c2cc3nccc(-c4ccccc4)c3o2)cc1NC(=O)[C@@H]1CCCN1 [Compound C30] |  | 0.3 to 3 | 0.3 to 3 | 3 to 50 |  | 
20 | COc1cc(NC(=O)[C@@H]2C[C@@H](O)CN2)cc(-c2cc3nccc(-c4ccccc4)c3o2)c1 [Compound C46] |  | < 0.3 | 3 to 50 | 3 to 50 |  | 
21 | COc1cc(-c2cc3nccc(-c4cnn(Cc5ccccc5)c4)c3o2)cc(OC)c1OC [Compound C58] |  | < 0.3 |  | < 0.3 |  | 
22 | COc1cc(-c2cc3nccc(-c4ccc5[nH]cnc5c4)c3o2)cc(OC)c1OC [Compound C60] |  | < 0.3 | 0.3 to 3 | 3 to 50 | 3 to 50 | 
23 | COc1cc(-c2cc3nccc(-c4ccnn4C)c3o2)cc(OC)c1OC [Compound C64] |  | 0.3 to 3 |  | 3 to 50 |  | 
24 | COCC(O)Cn1cc(-c2ccnc3cc(-c4cc(OC)c(OC)c(OC)c4)oc23)cn1 (stereo not shown) [Compound C66] |  | 0.3 to 3 | 0.3 to 3 | 3 to 50 |  | 
25 | COc1cc(-c2cc3nccc(-c4ccc5[nH]nnc5c4)c3o2)cc(OC)c1OC [Compound C70] |  | < 0.3 | 0.3 to 3 | 0.3 to 3 |  | 
26 | COc1cc(-c2cc3nccc(-c4cn[nH]c4)c3o2)cc(OC)c1OC [Compound C72] |  | < 0.3 | < 0.3 | 3 to 50 | 0.3 to 3 | 3 to 50
27 | COc1cc(-c2cc3nccc(-c4cc[nH]n4)c3o2)cc(OC)c1OC [Compound C73] |  | < 0.3 | < 0.3 | 0.3 to 3 | 0.3 to 3 | 3 to 50
28 | COc1cc(-c2cc3nccc(-c4ccnc(NCC5CCCNC5)c4)c3o2)cc(OC)c1OC (stereo not shown) [Compound C185] |  | < 0.3 |  | 3 to 50 | < 0.3 | 
